Assay results reported in patent publication US9988371B2, “Benzimidazole analogues and related methods” (The Arizona Board of Regents, on Behalf of the University …, priority 2014, dated 2018).

Tests used:
Type in all cases: cell-based
[1] = target: T1, hERG (relative to RET) (Homo sapiens, UniProt Q12809); assay: patch clamp hERG assay; settings: human; read-out: selectivity for RET over hERG
T1 construct: purchased GenScript
Method: (§1) Pz-1 was minimally active in the patch clamp hERG assay, with an IC50 for the hERG assay of 10 μM (GenScript).

[2] = target: T2, hERG (Homo sapiens, UniProt Q12809); assay: patch clamp hERG assay; settings: patch clamp (GenScript)
T2 construct: purchased GenScript
T2 sequence (Q12809 whole entry): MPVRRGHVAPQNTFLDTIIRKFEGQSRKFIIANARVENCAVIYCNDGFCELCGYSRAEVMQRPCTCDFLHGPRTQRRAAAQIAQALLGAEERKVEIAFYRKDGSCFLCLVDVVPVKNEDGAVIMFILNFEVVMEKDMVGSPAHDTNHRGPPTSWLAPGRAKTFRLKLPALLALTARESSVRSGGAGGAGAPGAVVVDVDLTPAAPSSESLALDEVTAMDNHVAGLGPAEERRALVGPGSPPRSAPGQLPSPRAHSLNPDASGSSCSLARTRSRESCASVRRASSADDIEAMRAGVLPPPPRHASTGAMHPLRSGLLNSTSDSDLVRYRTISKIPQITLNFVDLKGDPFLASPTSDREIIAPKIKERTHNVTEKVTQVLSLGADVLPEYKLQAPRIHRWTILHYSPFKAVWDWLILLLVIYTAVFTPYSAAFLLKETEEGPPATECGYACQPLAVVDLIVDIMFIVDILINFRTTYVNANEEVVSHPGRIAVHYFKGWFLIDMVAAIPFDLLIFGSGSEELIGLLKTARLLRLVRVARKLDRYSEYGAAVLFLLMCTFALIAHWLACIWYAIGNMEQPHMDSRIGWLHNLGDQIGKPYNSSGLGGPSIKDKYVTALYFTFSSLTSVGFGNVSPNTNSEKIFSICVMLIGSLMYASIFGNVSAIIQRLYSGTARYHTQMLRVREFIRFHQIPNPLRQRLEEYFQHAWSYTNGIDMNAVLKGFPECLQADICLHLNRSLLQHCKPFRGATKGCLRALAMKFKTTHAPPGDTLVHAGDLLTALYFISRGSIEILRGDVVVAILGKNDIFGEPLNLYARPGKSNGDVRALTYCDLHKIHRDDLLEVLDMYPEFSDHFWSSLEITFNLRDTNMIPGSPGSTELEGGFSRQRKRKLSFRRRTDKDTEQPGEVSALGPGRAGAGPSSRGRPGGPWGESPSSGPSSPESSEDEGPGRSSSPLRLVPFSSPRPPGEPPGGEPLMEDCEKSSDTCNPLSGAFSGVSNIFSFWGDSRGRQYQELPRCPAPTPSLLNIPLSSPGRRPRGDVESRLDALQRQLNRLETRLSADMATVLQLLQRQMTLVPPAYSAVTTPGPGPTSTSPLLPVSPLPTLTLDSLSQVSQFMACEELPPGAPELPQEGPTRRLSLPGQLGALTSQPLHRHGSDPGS
Method: as §1

[3] = target: VEGFR2 (Homo sapiens, UniProt P35968); assay: VEGFR2 autophosphorylation immunoblot in HEK293 cells stimulated with VEGF; parameters: expressed in transfected cells; host or cells: HEK293
VEGFR2, sequence (P35968 20-1356): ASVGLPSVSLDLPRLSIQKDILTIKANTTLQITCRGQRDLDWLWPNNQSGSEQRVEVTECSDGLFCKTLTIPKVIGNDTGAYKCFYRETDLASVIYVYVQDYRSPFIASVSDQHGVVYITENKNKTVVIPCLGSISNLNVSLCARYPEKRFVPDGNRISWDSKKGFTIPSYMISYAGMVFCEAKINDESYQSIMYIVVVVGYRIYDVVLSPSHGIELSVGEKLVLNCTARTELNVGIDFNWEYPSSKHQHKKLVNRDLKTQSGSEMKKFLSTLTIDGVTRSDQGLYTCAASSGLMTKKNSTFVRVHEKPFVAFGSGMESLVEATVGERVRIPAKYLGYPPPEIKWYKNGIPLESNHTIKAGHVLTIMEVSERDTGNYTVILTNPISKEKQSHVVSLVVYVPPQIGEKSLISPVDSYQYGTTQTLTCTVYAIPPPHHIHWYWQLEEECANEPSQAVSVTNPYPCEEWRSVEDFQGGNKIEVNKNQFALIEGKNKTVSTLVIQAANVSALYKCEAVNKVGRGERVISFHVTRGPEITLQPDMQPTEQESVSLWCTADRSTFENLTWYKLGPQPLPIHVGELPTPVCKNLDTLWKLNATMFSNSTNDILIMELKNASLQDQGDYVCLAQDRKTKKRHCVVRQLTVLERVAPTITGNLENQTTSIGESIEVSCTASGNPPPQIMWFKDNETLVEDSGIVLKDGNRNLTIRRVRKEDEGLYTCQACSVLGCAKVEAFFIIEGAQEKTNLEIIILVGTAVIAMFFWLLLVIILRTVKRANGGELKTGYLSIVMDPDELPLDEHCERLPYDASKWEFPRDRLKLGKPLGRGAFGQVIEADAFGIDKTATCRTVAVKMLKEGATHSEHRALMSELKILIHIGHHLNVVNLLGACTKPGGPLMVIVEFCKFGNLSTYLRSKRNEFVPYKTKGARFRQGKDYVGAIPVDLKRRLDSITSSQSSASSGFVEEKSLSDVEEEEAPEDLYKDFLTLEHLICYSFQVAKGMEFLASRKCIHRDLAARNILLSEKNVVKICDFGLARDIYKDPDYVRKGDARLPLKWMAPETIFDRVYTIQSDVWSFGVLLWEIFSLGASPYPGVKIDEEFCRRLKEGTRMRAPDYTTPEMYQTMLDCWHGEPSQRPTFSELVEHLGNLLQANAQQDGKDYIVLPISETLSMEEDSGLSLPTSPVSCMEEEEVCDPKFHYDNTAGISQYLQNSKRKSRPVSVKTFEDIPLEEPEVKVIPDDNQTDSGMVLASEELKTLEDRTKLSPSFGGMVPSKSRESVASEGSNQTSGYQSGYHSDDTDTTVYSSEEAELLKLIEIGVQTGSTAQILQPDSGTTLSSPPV
Method: FIG. 4: Photograph of blot showing inhibition of VEGFR2 phosphorylation ectopically expressed in HEK293 cells by indicated doses of Pz-1 or vehicle (NT: not treated). HEK293 cells were transiently transfected with vector expressing VEGFR2. 36 hr following transfection, cells were serum-starved for 12 hr, treated for 2 hr with indicated concentrations of Pz-1 and finally treated with VEGF-A (100 ng/ml) for 15 min. 50 μg of total cell lysates were subjected to immunoblotting with anti-phospho-Y1175 (αpVEGFR2) VEGFR2 antibodies. The blot was normalized using anti-VEGFR2 (αVEGFR2) antibody.
The inhibition of RET auto-phosphorylation by Pz-1 was measured in several different cell lines including NIH3T3 fibroblasts expressing RET/C634Y or RET/M918T, TT expressing RET/C634W (MTC), Nthy-ory-3-1 (thyroid, non-transformed with RET; negative control), HEK293/RET/PTC1 (CCDC6-RET that can be found in PTC & lung cancer), HEK293/RET-KIF5B (that can be found in lung cancer), HEK293/RET/PTC3 (NCOA4-RET, that can be found in PTC & lung cancer), and HEK293 transfected with RET/C634R-V804M (FIGS. 1-3). HEK293 cells were transiently transfected with expression vectors comprising the desired mutant. […]
Protein lysates were prepared according to standard procedures. […] Immune complexes were detected with the enhanced chemiluminescence kit (Amersham Pharmacia Biotech, Little Chalfort, UK). […]

[4] = test system: LC-2/ad cells (NSCLC expressing CCDC6-RET); assay: Growth curve proliferation assay, LC-2/ad cells; settings: Homo sapiens, last day of growth curves
Method: FIG. 5: Effects exerted by indicated concentrations of Pz-1 or vehicle (NT: not treated) on proliferation of TT (human MTC cell line expressing RET/C634W), Lc-2/ad (human NSCLC expressing CCDC6-RET) and Nthy-ori-3-1 (thyroid non-transformed) cell lines. Data are the mean±SD (Standard Deviation) of one experiment performed in triplicate. Bottom, right) Growth inhibition IC50 of Pz-1 for the different cell lines: 95% CI (confidence intervals) are indicated in brackets. Cells were seeded in triplicate in 60-mm dishes and kept in 5% (Nthy-ori-3-1) or 10% (TT and Lc-2/ad) fetal calf serum. The day after plating, different concentrations of Pz-1 or vehicle were added to the medium and changed every 2-3 days. Cells were counted every 2-3 days and cell numbers were reported±SD (Standard Deviation). IC50 doses (with Confidence Intervals) were calculated through a curve fitting analysis from the last day of growth curves using the PRIZM software program (Graphpad Software Inc).
Nthy-ory-3-1 and TTcells were seeded in 60-mm dishes. […] Cells were counted every 2-3 days. […] Parental and RET/PTC-expressing Ba/F3 were kept in 10% fetal calf serum in 6-multi wells and counted every day for 4 consecutive days, changing media every 2 days. […] IC50 doses were calculated through a curve fitting analysis from the last day of growth curves using the PRISM software program (Graphpad Software Inc). […]

T1 sequence (Q12809 whole entry): as the sequence (Q12809 whole entry) above

Cn1cc(-c2ccc3c(c2)ncn3-c2ccc(CC(=O)Nc3cc(C(C)(C)C)on3)cc2)cn1 [Pz-1, N-(5-(tert-butyl)isoxazol-3-yl)-2-(4-(5-(1-methyl-1H-pyrazol-4-yl)-1H-benzo[d]imidazol-1-yl)phenyl)acetamide] was tested. Which selectivity ratio [1] did it give?
The selectivity ratio was 10000.

What about the IC50 [2] of the same compound?
Its IC50 is 10 µM.

What about the “inhibition of VEGFR2 autophosphorylation” value ([3]; 1 nM, HEK 293 transiently transfected with VEGFR2, stimulated with VEGF) of the same compound?
Its value is “strongly inhibited”.

What about the “inhibition of VEGFR2 auto-phosphorylation” value ([3]; nanomolar concentrations) of the same compound?
Its value is 90%.

And the IC50 [4]?
The IC50 was 0.000907 µM.
